In ChEMBL document CHEMBL1944573, “New bisabolane sesquiterpenoids from a marine-derived fungus Aspergillus sp. isolated from the sponge Xestospongia testudinaria” (Bioorg Med Chem Lett, 2012) one finds IC50 data, which are given here for 3 compounds.

In brackets after ≈: the same amount, converted by molar mass.

Experiment [1] deals with HepG2. Nature of the experiment: Cytotoxicity against human HepG2 cells by MTT assay. Type of experiment: functional, cell-based. Background: Tetrazolium assays rely on reduction of a dye to a coloured formazan, in cell work by metabolically active cells.
The test system of experiment [2] is Ca-Ski. In words: Cytotoxicity against human CaSki cells by MTT assay. The experiment is classed as functional, cell-based.

A word on the IC50: it is the point on the concentration scale where inhibition reaches its midpoint. Read a low IC50 as inhibition by little substance. For the compound `CC(C)CCC[C@](C)(O)c1ccc(COc2cc(CO)ccc2[C@@](C)(O)CCCC(C)C)cc1O` [DISYDONOL A], the 50% inhibitory concentration (IC50) was 9.31 mg/L (≈ 19.1 µM) in experiment [1] and 12.4 mg/L (≈ 25.5 µM) in experiment [2].

With `CC(C)CCC[C@](C)(O)c1ccc(CO)cc1Oc1cc(CO)ccc1[C@](C)(O)CCCC(C)C` [DISYDONOL B], the concentration for half-maximal inhibition (IC50) in experiment [1] and in experiment [2] was over 100 mg/L in each case.

Consider `CC(C)CCC[C@](C)(O)c1ccc(Cc2cc([C@@](C)(O)CCCC(C)C)c(O)cc2CO)cc1O` [DISYDONOL C], for which the IC50 in experiment [1] came to 2.91 mg/L (≈ 5.98 µM); in experiment [2] it was 10.2 mg/L (≈ 21 µM).
